Reference: patent publication US12643867B2, “Compositions and uses thereof” (University of Virginia Patent Foundation, priority 2017, dated 2026)

Legend:
[1] = target: T1, DGKE (Diacylglycerol kinase epsilon) (Homo sapiens, UniProt P52429); test: SILAC LC-MS ATP acyl phosphate probe competition, recombinant DGK-HEK293T lysates; assay type: binding; conditions: site DAGKa (K392); membrane fraction; ATP 1 mM; Ketanserin, Ritanserin 100 μM; RF001 1 mM
T1 construct: expressed in transfected cells; host or cells: SILAC HEK293T, membrane fraction
T1 sequence (P52429 1-567): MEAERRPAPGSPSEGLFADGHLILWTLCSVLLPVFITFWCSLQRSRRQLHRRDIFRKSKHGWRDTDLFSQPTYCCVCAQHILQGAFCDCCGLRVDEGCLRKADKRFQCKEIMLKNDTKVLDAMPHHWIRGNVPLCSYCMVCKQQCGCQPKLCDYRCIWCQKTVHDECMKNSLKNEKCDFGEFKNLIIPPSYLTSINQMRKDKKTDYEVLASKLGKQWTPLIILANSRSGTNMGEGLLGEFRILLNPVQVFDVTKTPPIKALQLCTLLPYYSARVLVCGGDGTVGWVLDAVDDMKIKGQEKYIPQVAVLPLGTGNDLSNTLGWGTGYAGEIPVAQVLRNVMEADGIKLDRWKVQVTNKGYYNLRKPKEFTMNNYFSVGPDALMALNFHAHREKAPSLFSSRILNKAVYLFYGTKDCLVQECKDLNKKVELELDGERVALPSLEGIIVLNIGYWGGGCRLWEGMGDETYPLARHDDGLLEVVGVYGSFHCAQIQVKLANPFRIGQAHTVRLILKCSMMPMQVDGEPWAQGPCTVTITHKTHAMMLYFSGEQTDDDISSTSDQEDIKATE
Excerpt: Recombinant DGK proteins were produced by transient transfection of HEK293T cells with recombinant DNA. pDONR223-DGKK was a gift from William Hahn & David Root (Addgene plasmid #23487). pCSF107mT-GATEWAY-3′-FLAG was a gift from Todd Stukenberg (Addgene plasmid #67619). pCSF107mT-DGKK-FLAG construct was generated by recombination of the Addgene plasmids using the Gateway cloning system (Invitrogen). All other vectors were gifted to Dr. Kevin Lynch (University of Virginia, School of Medicine) by Dr. Kaoru Goto (Yamagata University, School of Medicine) and Dr. Fumio Sakane (Chiba University) and were kindly shared with us: pcDNA3-FLAG-DGKA (rat), pCMV-Tag2B-FLAG-DGKQ (human), pcDNA3-DGKE-3×Flag (human), and pCMV-SPORT6-HA-DGKZ (human). HEK293T cells were plated at a concentration of 400,000 cells in complete DMEM and grown to 50-60% confluency. A polyethyleneimine (PEI) stock solution was prepared (1 mg/mL, pH 7.4) and filter sterilized. Serum-free DMEM (600 μL) was mixed gently with 2.6 μg DNA and 20 μL of sterile PEI (1 mg/mL, pH 7.4) in a sterile microfuge tube. Mixtures were incubated for 30 min at 25° C. The mixture was then added drop-wise to each 10 cm^2 plate, rocked back and forth to mix, and placed back in the incubator. Cell pellets were harvested after two full days of growth, snap-frozen in liquid N2, and stored at −80° C. until use. Recombinant proteins were produced by transient transfection in SILAC HEK293T cells using the procedure described above, except that cells were plated at a concentration of 1×10^6 cells per 10 cm^2 plate and grown to ˜70% confluency prior to introducing transfection mixture.
Cell pellets were resuspended in kinase buffer (Dulbecco's PBS (DPBS, Hyclone), 20 mM MgCl2, EDTA-free protease inhibitors (Pierce)) and then lysed by sonication (3×1 sec pulse, 20% amplitude). The cell lysates were then subjected to centrifugation (100,000×g, 45 min at 4° C.) to isolate the cytosolic fraction in the supernatant and the membrane fraction as a pellet. […] Protein concentrations were measured using the Bio-Rad DC protein assay. […]

H1650 cells = test: WST-1 Cell Proliferation Assay; assay type: cell-based; conditions: for cell viability (WST-1), words: ritanserin, ketanserin 5-50 μM, staurosporine 1 μM
Description: (§1) WST-1 Cell Proliferation Assays. Tumor cells were plated in transparent tissue-culture treated 96-well plates at a density of 100,000 cells/mL (A549, H1650) or 200,000 cells/mL (H82) in a volume of 100 μL per well. Cells were treated with dimethyl sulfoxide (DMSO) vehicle or inhibitors dissolved in DMSO at the indicated concentrations (final DMSO concentration of 0.5%). Cells were allowed to grow for indicated times at 37° C. under 5% CO2. Afterwards, equal parts of WST-1 developer reagent and electron mediator solution were mixed and 10 μL of the resulting solution (‘WST-1 reagent’) were added to each well. Plates were shaken in an orbital shaker for 60 s and then returned to the incubator for two hrs. Plates were again shaken followed measurement of absorbance at 450 nm. Data were normalized to DMSO-treated wells and significance values determined with one-way ANOVA.

H82 cells = test: WST-1 Cell Proliferation Assay; assay type: cell-based; conditions: for cell viability (WST-1), words: ritanserin, ketanserin 5-50 μM, staurosporine 1 μM
Description: as §1

A549 cells = test: WST-1 Cell Proliferation Assay; assay type: cell-based; conditions: for cell viability (WST-1), words: ritanserin, ketanserin 5-50 μM, staurosporine 1 μM
Description: as §1

Row | Compound | SILAC ratio, DGKE DAGKa probe-modified peptide [1] | cell death (WST-1) (H1650 cells; 5 μM, two days) | cell death after 1 day (WST-1) (H1650 cells; 25 μM, 1 day) | inhibition at 25 µM (H1650 cells; Homo sapiens, NCI-H1650, 48 h, 25 μM, two days, read-out: inhibition of cell growth (WST-1)) | cell viability (WST-1), words (H1650 cells) | cell death (WST-1) (H82 cells; 5 μM, two days) | cell death after 1 day (WST-1) (H82 cells; 25 μM, 1 day) | inhibition at 25 µM (H82 cells; Homo sapiens, NCI-H82, 48 h, 25 μM, two days, read-out: inhibition of cell growth (WST-1)) | cell viability (WST-1), words (H82 cells) | cell death (WST-1) (A549 cells; 5 μM, two days) | cell death after 1 day (WST-1) (A549 cells; 25 μM, 1 day) | inhibition at 25 µM (A549 cells; Homo sapiens, A549, 48 h, 25 μM, two days, read-out: inhibition of cell growth (WST-1)) | cell viability (WST-1), words (A549 cells)
1 | Cc1nc2sccn2c(=O)c1CCN1CCC(=C(c2ccc(F)cc2)c2ccc(F)cc2)CC1 [Ritanserin] | 1.0 | 5-15% | > 50% | > 70% | Concentration-dependent decreases in viability | ~50% | > 50% | > 70% | Concentration-dependent decreases in viability | 5-15% | > 50% | > 70% | Concentration-dependent decreases in viability
2 | Fc1ccc(C(=C2CCNCC2)c2ccc(F)cc2)cc1 [RF001, 4-(Bis(4-fluorophenyl)methylene) piperidine] | 0.7 |  |  |  |  |  |  |  |  |  |  |  | 
3 | O=C(c1ccc(F)cc1)C1CCN(CCn2c(=O)[nH]c3ccccc3c2=O)CC1 [Ketanserin] | 1.3 |  |  |  | lack of activity |  |  |  | lack of activity |  |  |  | lack of activity
